Assay results as given in patent US20110195910A1, “USE OF TOCOTRIENOL COMPOSITION FOR THE PREVENTION OF CANCER” (DAVOS LIFE SCIENCE PTE. LTD., priority 2008, published 2011).

Tested on: MDA-MB-231 cells
Assay: Flow cytometry, western blotting and RT-PCR, MDA-MB-231 cells
Type: cell-based, human
Method: 1.1.3 Flow cytometry—Cell cycle distribution was examined using flow cytometry. Briefly, cells were harvested by trypsinization, fixed in 70% ethanol at 4° C. overnight, and then resuspended in PBS. After incubation at 4° C. for overnight, 2×10^6 cells were incubated with in 20 μg/ml propidium iodide (PI) and 2 mg RNaseA for 15 minutes at 37° C. Cells were then examined by BD SLRII cytometer and the results were analyzed using ModFit software (Becton Dickinson, Mountain View, Calif.). Data were expressed as the percentage of cell cycle distribution in the entire population.
1.1.5 Western blotting—Detailed protocols have been described previously and are known in the art. Briefly, cell lysates were prepared by suspending cell pellets in lysis buffer [50 mmol/l Tris-HCl (pH 8.0), 150 mmol/l NaCl, 1% NP40, 0.5% deoxycholate, 0.1% SDS, 1 mg/ml aprotinin, 1 μg/ml leupeptin and 1 mmol/l phenylmethylsulfonyl fluoride]. For nuclear protein extraction, NucBuster™ protein extraction kit was used. Protein concentration was measured using the DC Protein Assay kit (Bio-Rad, Hercules, Calif.). Equal amount of protein (30 μg) was loaded onto a 10% SDS polyacrylamide gel for electrophoresis and then transferred onto a polyvinylidene difluoride membrane (Amersham, Piscataway, N.J.). The membrane was then incubated with primary antibodies for 1 hr at room temperature against E-cadherin (BD Biosciences, Bedford, Mass.), α-catenin, β-catenin, γ-catenin, Id-1, Id-3, EGFR, phosphor-c-jun, phosphor-ATF2, cleaved PARP, vimentin, α-smooth muscle actin, twist (Santa Cruz Biotechnology, Calif.), phosphor-IkB-alpha (Ser32/36), phosphor-IKK alpha (Seri 80)/IKK beta (Ser181), phosphor-SAPK/JNK (Thr183/Tyr185) G9, SAPK/JNK, NF-kB p65 (5A5) (Cell Signaling Technology Inc, Beverly, Mass.), Snail (Abcam). After incubation with appropriate secondary antibodies, signals were visualized by ECL western blotting system (Amersham, Piscataway, N.J.). Expression of β-actin and histone H1 were assessed as an internal loading control for total cell lysate and nuclear protein lysate respectively.
3.1.5 DNA fragmentation assay—After 24 hrs incubation with gamma-T3, 3×10^6 MDA-MB-231 cells were harvested and suspended in lysis buffer [5 mM Tris-HCl (pH 8.0), 20 mM EDTA, and 0.5% (v/v) Triton X-100] for 60 min on ice. Samples were centrifuged, the supernatants were removed and incubated with 5 μl RNase A (10 μg/ml) at 37° C. for 40 min, and 1 ml of anhydrous ethanol was added. Tubes were placed at […] for 20 min and then centrifuged to pellet the DNA. DNA samples were analyzed by electrophoresis at 80 V for 3 hrs on a 2% agarose gel containing ethidium bromide (0.2 μg/ml) and visualized under UV illumination.
3.1.6 Terminal deoxynucleotidyltransferase-mediated deoxyuridine triphosphate nick end-labelling (TUNEL) assay—DNA strand breaks during apoptosis was examined using in situ cell death detection reagent (Roche Applied Science). Briefly, 1×10^6 cells were pretreated with gamma-T3 for 24 hrs. Thereafter, cells were incubated with reaction mixture for 60 min at 37° C. Stained cells were analyzed and captured by fluorescence microscope on glass slide.
3.1.7 Flow cytometry was carried out as described above under item 1.1.3. Matrigel-invasion assay was carried out as described above under item 1.1.4. Western blotting was carried out as described above under item 1.1.5.
3.1.8 Id-1 RT-PCR—Total RNA was isolated using Trizol® reagent according to the manufacturer's protocol (Invitrogen). cDNA was synthesized using the SuperScript™ First Strand Synthesis System (Invitrogen) and was then amplified by PCR with Id-1 specific primers (forward primer, Id1-S, 5′-CTCCAGCACGTCATCGACTA-3′ and reverse primer, Id1-AS,5′-AAC GCA TGC CGC CTC-3′). PCR cycling protocol was as follows: 30 cycles of 10 min at 95° C., 30 s at 95° C., 30 s at 55° C., 1 min at 72° C. and 10 min at 72° C. Glyceraldehyde 3-phosphate dehydrogenase was amplified as an internal control. […]

For `CC(C)=CCC/C(C)=C/CC/C(C)=C/CCC1(C)CCc2cc(O)c(C)c(C)c2O1` (centres unmarked) [γ-T3, 7,8-dimethyltocotrienol], the JNK phosphorylation (MDA-MB-231) was “dose-dependent increase in JNK phosphorylation activities”, the “Src phosphorylation, protein level of Smad1/5/8, LOX and activated Fak” value (MDA-MB-231) was “repressed in a dose dependent manner” and the “expression of Snail and Twist” value (MDA-MB-231) was “downregulated”. For the same compound, the “nuclear level of NF-κB p65” value (MDA-MB-231) was “suppressed nuclear level of NF-κB p65 in a dose-dependent manner”, the “MAPK/ERK pathway (phosphorylation of Erk1/2, Mek1/2 and Elk1)” value (MDA-MB-231, 24 hours) was “activated” and the “activation of pro-apoptotic proteins (cleaved products)” value (MDA-MB-231, 24 hrs) was “activation of procaspase 3, 7, 8, 9 as well as PARP”. The “Id1 and Id3 expressions (EGF-R similar)” value (MDA-MB-231, increasing dosages) was “significantly suppressed to almost undetectable level” and the “sub-G1 cell population (flow cytometry)” value (gamma-T3 IC50-90, 24 hrs) was “induction of sub-G1 cell population”.
